# Values of other authors, collected in patent publication US20060246003A1, “Composition containing anti-dementia drug” (priority 2004, published 2006).
# Structures can show the parent of a compound that is named as a salt.
# Tested on: patients with moderate to severe Alzheimer-type dementia
# Conditions: memantine hydrochloride added in patients already administered donepezil hydrochloride, compared to placebo group
compound,measurement,value
CC12CC3CC(C)(C1)CC(N)(C3)C2 [memantine hydrochloride],cognitive ability and activities of daily living,improved
